Data taken from patent publication US20230241257A1, “BIOTIN-MODIFIED DIMER AND USE THEREOF” (THE UNIVERSITY OF TOKYO, priority 2020, published 2023).

How the values were obtained:
[1] = system: human stomach cancer cells (MKN-45); assay: Experiment 3: pharmacokinetics of Cupid-scFv antibody (48 h before)+^211At-psyche-B in MKN-45 cancer-bearing mouse models; format: in vivo, mice (BALB/cSlc nu/nu)
Protocol: The present experiment highly used CEA-expressing human stomach cancer cells (MKN-45). 9-week-old male immunodeficient mice (BALB/cSlc nu/nu) were used. MKN-45 cells (1×10^7/0.1 ml) were transplanted into the mice's subcutis on the right shoulder dorsal side to produce cancer-bearing mouse models. The mice were divided into four groups when the tumor volume became a predetermined size (on Day 12 after the transplantation). A Cupid-scFv antibody was administered in 100 μmol/0.1 ml via the caudal vein of each mouse. Forty-eight hours after administration of the Cupid-scFv antibody, ^211At-psyche-B (about 0.25 MBq/100 ml) was administered via the caudal vein of the mice. One minute, 1 hour, 6 hours, and 24 hours after administration of the ^211At-psyche-B, the mice were euthanized by collecting whole blood from the heart of each mouse under isoflurane anesthesia, and tumor tissues and normal tissues/organs were then excised. Normal tissues/organs: skin (lower right limb), muscle (right gastrocnemius muscle), heart, lung, spleen, pancreas, white fat (upper portion of right side testis), testis (both sides), stomach, stomach contents, small intestine (including contents), large intestine (including contents), liver, brown fat (interscapular), submandibular gland, thyroid gland (together with trachea), bone (right femur), cerebrum, eyeballs (both sides), bladder, and urine; the remaining residues were divided into three equal parts, and the three equal parts were defined to be residue-1, residue-2, and residue-3. After that, the weights of blood, plasma, urine, tumor, and normal tissues/organs were measured, and the radioactivity thereof was then measured using a γ counter. The amounts of the ^211At-psyche-B (radioactivity) accumulated in the blood, plasma, urine, tumor, and normal tissues/organs were calculated. That is to say, the rates (% ID/g) of the ^211At-psyche-B accumulated per unit weight (g) of the blood, plasma, urine, tumor, and normal tissues/organs, in the administered ^211At-psyche-B, were shown. Regarding accumulation of the ^211At-psyche-B in the thyroid gland, since the weight of the thyroid gland could not be precisely measured, it was shown that the rate (% ID) of the ^211At-psyche-B accumulated in the thyroid gland in the administered ^211At-psyche-B.

[2] = system: human stomach cancer cells (MKN-45); assay: Experiment 4: pharmacokinetics of ^211At-psyche-B in the absence of Cupid-scFv antibody in MKN-45 cancer-bearing mouse models; format: in vivo, mice (BALB/cSlc nu/nu); conditions: no Cupid-scFv antibody
Protocol: The present experiment used human stomach cancer cells (MKN-45) expressing carcinoembryonic antigen (CEA). 9-week-old male immunodeficient mice (BALB/cSlc nu/nu) were used. MKN-45 cells (1×10^7/0.1 ml) were transplanted into the mice's subcutis on the right shoulder dorsal side to produce cancer-bearing mouse models. The mice were divided into four groups when the tumor volume became a predetermined size (on Day 14 after the transplantation), and ^211At-psyche-B (about 0.25 MBq/[…]) was administered via the caudal vein of each mouse. One minute, 1 hour, 6 hours, and 24 hours after administration of the ^211At-psyche-B, the mice were euthanized by collecting whole blood from the heart of each mouse under isoflurane anesthesia, and tumor tissues and normal tissues/organs were then excised. Normal tissues/organs: skin (lower right limb), muscle (right gastrocnemius), heart, lung, spleen, pancreas, white fat (upper portion of right side testis), testis (both sides), stomach, stomach contents, small intestine (including contents), large intestine (including contents), liver, brown fat (interscapular), submandibular gland, thyroid gland (together with trachea), bone (right femur), brain, eyeball, bladder, and urine; the remaining residues were divided into three equal parts, and the three equal parts were defined to be residue-1, residue-2, and residue-3. After that, the weights of blood, plasma, urine, tumor, and normal tissues/organs were measured, and the radioactivity thereof was then measured using a γ counter. The amounts of the ^211At-psyche-B (radioactivity) accumulated in the blood, plasma, urine, tumor, and normal tissues/organs were calculated. That is to say, the rates (% ID/g) of the ^211At-psyche-B accumulated per unit weight (g) of the blood, plasma, urine, tumor, and normal tissues/organs, in the administered ^211At-psyche-B, were shown. Regarding accumulation of the ^211At-psyche-B in the thyroid gland, since the weight of the thyroid gland could not be precisely measured, it was shown that the rate (% ID) of the ^211At-psyche-B accumulated in the thyroid gland in the administered ^211At-psyche-B.

## N=C1N[C@H]2[C@H](CS[C@H]2CCCCC(=O)NCCCCCC(=O)Nc2cc(NC(=O)CCCCCNC(=O)CCCC[C@@H]3SC[C@@H]4NC(=N)N[C@@H]43)cc(C(=O)NCCOCCOCCNC(=O)c3cccc([211At])c3)c2)N1 [^211At-psyche-B]
[1]; after 1 minute
  Accumulation in the kidney: 62.3±9.8 % ID/g
  Accumulation in the liver: 41.4±6.2 % ID/g
  Accumulation in the lung: 10.2±1.6 % ID/g
  Accumulation in the spleen: 3.5±0.1 % ID/g
  Accumulation in the tumor: 0.5±0.1 % ID/g
  Clearance from the blood: 30.7±2.2 % ID/g
  tumor-to-blood ratio: 0.02±0.00
  tumor-to-muscle ratio: 1.0±0.3
[1]; after 1 hour
  Accumulation in the kidney: 38.0±4.5 % ID/g
  Accumulation in the liver: 25.6±2.5 % ID/g
  Accumulation in the lung: 12.2±0.9 % ID/g
  Accumulation in the spleen: 8.5±0.6 % ID/g
  Accumulation in the tumor: 3.2±0.7 % ID/g
  Clearance from the blood: 30.8±5.5 % ID/g
  tumor-to-blood ratio: 0.11±0.02
  tumor-to-muscle ratio: 4.7±0.4
[1]; after 6 hours
  Accumulation in the kidney: 14.9±0.8 % ID/g
  Accumulation in the liver: 23.6±2.3 % ID/g
  Accumulation in the lung: 8.5±0.9 % ID/g
  Accumulation in the spleen: 11.1±0.7 % ID/g
  Accumulation in the tumor: 9.9±2.9 % ID/g
  Clearance from the blood: 19.0±2.6 % ID/g
  tumor-to-blood ratio: 0.51±0.09
  tumor-to-muscle ratio: 13.1±3.5
[1]; after 24 h
  Accumulation in the thyroid gland: 0.16±0.02 % ID
[1]; after 24 hours
  Accumulation in the kidney: 6.6±0.2%
  Accumulation in the liver: 19.3±0.6%
  Accumulation in the lung: 3.5±0.2%
  Accumulation in the spleen: 10.2±1.6%
  Accumulation in the tumor: 11.3±3.3%
  Clearance from the blood: 2.6±0.5 % ID/g
  tumor-to-blood ratio: 4.38±0.85
  tumor-to-muscle ratio: 23.2±7.2
[2]; after 1 minute
  Accumulation in the blood: 10.4±1.1 % ID/g
  Accumulation in the kidney: 61.4±6.5 % ID/g
  Accumulation in the liver: 49.1±6.2 % ID/g
  Accumulation in the tumor: 0.3±0.05 % ID/g
[2]; after 1 hour
  Accumulation in the blood: 3.8±0.3 % ID/g
  Accumulation in the kidney: 57.2±3.1 % ID/g
  Accumulation in the liver: 35.3±3.3 % ID/g
  Accumulation in the tumor: 1.0±0.1 % ID/g
[2]; after 6 hours
  Accumulation in the blood: 0.4±0.1 % ID/g
  Accumulation in the kidney: 17.7±1.9 % ID/g
  Accumulation in the liver: 16.8±0.7 % ID/g
  Accumulation in the thyroid gland: 0.16±0.06 % ID
  Accumulation in the tumor: 1.0±0.1 % ID/g
[2]; after 24 hours
  Accumulation in the blood: 0.2±0.04 % ID/g
  Accumulation in the kidney: 5.1±0.9%
  Accumulation in the liver: 9.0±1.4%
  Accumulation in the tumor: 0.3±0.02%
